In one series the test system is Escherichia coli (K12). The experiment in a line: 96-well plate broth assay, minimum inhibitory concentration (MIC). The settings on record: triplicate, 37° C., 16-20 hours, concentration as N-acryloylciprofloxacin, read-out: MIC vs E. coli (K12). It counts as cell-based. Here is the method:
(§1) Each assay was done in triplicate.
(§2) The original stock emulsion was diluted using the Trypticase Soy Broth solution to an initial concentration of 1.28 mg/ml of the N-acryloylciprofloxacin, then serial diluted with TSB to half the concentration each time. A volume of 10 μl of each emulsion dilution was added to a well in series, resulting in a final concentration run of 64 μg/ml to 0.012 μg/ml. The MIC was done in triplicates for each bacterium, with ciprofloxacin hydrochloride being used as a positive control and a blank of broth medium was used as a negative control.
(§3) Bacteria were grown overnight at 37° C. on an agar plate composed of BBL TSA II Trypticase Soy Agar (TSA) and BBL Trypticase Soy Broth (TSB) in a 1:2 ratio at 4.4% concentration. A broth solution of 2.4% TSB was inoculated using the bacteria from the agar plates, and incubated at 37° C. to reach a 0.5 McFarland standard. The bacteria were then further diluted by a factor of 1000 using a broth solution of 2.4% TSB, and 190 μl of the diluted bacterial solution was transferred by micropipette into each well.

The subject of series [1] is Staphylococcus aureus (ATCC 25923). The series is described as above. It is filed as cell-based. The settings on record: ATCC25923, triplicate, 37° C., 16-20 hours, concentration as N-acryloylciprofloxacin, read-out: MIC vs S. aureus (ATCC 25923). The method, then: as §1, §2, §3
The nature of series [2]: Solubility in organic solvents. It is filed as physicochemical.
Method: This method was attempted using methanol, ethanol, ethyl acetate, and dichloromethane. […] However, there was a critical issue that resulted with the polymerization procedure. Typically, organics were stirred at 75° C., then the surfactant and water were added. This would cause the dichloromethane to rapidly evaporate.

This is an account of results in US11116725B2, “Nanoparticles carrying antibiotics” (UNIVERSITY OF SOUTH FLORIDA, priority 2017, dated 2021).

≈ marks a conversion by molar mass, not a printed value.

As for `O=C(O)c1cn(C2CC2)c2cc(N3CCNCC3)c(F)cc2c1=O` [Control Ciprofloxacin, ciprofloxacin], the MIC amounted to 0.012 µg/mL (≈ 0.0362 µM) in the series with Escherichia coli (K12) and 0.5 µg/mL (≈ 1.51 µM) in series [1].
Regarding `C=CC(=O)N1CCN(c2cc3c(cc2F)c(=O)c(C(=O)O)cn3C2CC2)CC1` [N-acryloylciprofloxacin], in series [2], the solubility in dichloromethane entry is “Up to 500 mg/ml”.

Broadly, the MIC is the smallest concentration in the dilution series that meets the test's criterion for growth inhibition.
